Results on five molecules are retold here after ChEMBL document CHEMBL6134922 (ACS Med Chem Lett, 2025).

Data set [1] can be described thus: Plasma protein binding in human assessed as unbound fraction at 5 uM incubated for 6 hrs by equilibrium dialysis based HPLC analysis. It is filed as ADME, cell-free.
Data set [2] in a line: Plasma protein binding in mouse assessed as unbound fraction at 5 uM incubated for 6 hrs by equilibrium dialysis based HPLC analysis. It is filed as ADME, cell-free. Background: In equilibrium dialysis only unbound substance equilibrates across the membrane.
Data set [3] can be described thus: Unbound fraction in rat brain at 5 uM incubated for 6 hrs by equilibrium dialysis based HPLC analysis. It is filed as ADME, tissue-based.
A short description of data set [4]: Unbound fraction in mouse brain at 5 uM incubated for 6 hrs by equilibrium dialysis based HPLC analysis. Type of data set: ADME, tissue-based.
Data set [5] in a line: Cmax in CD-1 mouse at 10 mg/kg, po measured up to 24 hrs by LC-MS/MS analysis. Type of data set: ADME, organism-based. The note with it: in vivo.
Data set [6] in a line: AUC in CD-1 mouse at 10 mg/kg, po measured up to 24 hrs by LC-MS/MS analysis. Type of data set: ADME, organism-based. The note with it: in vivo.
The nature of data set [7]: Cmax in CD-1 mouse at 10 mg/kg, ip measured up to 24 hrs by LC-MS/MS analysis. Type of data set: ADME, organism-based. Conditions: in vivo.
Data set [8] in a line: AUC in CD-1 mouse at 10 mg/kg, ip measured up to 24 hrs by LC-MS/MS analysis. The note with it: in vivo. Type of data set: ADME, organism-based.
The nature of data set [9]: Plasma protein binding in human assessed as percent bound at 5 uM incubated for 6 hrs by equilibrium dialysis based HPLC analysis.
Data set [10] in a line: Plasma protein binding in mouse assessed as bound fraction at 5 uM incubated for 6 hrs by equilibrium dialysis based HPLC analysis.

Bounds are passed on as bounds.

Usually fraction unbound stands for the share of the substance not bound to proteins or other matrix. As for `Cc1cc(C#Cc2cccc(F)c2)cnc1NC(=O)c1cc(NC(=O)OC(C)(C)C)ccc1Cl`, the fraction unbound at 6 h, 5 µM in data set [1] and in data set [2] was over 0.999 throughout.

Take `CC(C)(C)OC(=O)Nc1ccc(Cl)c(C(=O)Nc2ncc(C#Cc3ccccc3)cc2Cl)c1`: in data set [2], the fraction unbound at 6 h, 5 µM is over 0.999.

The Cmax is the highest concentration seen after dosing. What is called AUC is the area under the concentration-time curve, a measure of exposure. Lower therefore signals low exposure. `Cc1cc(C#Cc2ccc(F)cc2)cnc1NC(=O)c1cc(NC(=O)OC(C)(C)C)ccc1Cl`: the fraction unbound at 6 h, 5 µM in data set [3] is over 0.999; in data set [4], 0.994. The Cmax in data set [5] was 252 nM; in [7] it was 888 nM. The AUC at 24 h was 2.27 µM·h in data set [6] and 12.3 µM·h in data set [8].

Consider `Cc1cc(C#Cc2ccccc2)cnc1NC(=O)c1cc(NC(=O)OC(C)(C)C)ccc1Cl`, for which the “plasma protein binding (% bound)” value in data set [9] was found to be 99.5%; in data set [10], 98.7%.

Regarding `CC(C)(C)OC(=O)Nc1ccc(Cl)c(C(=O)Nc2ncc(C#Cc3ccccc3)cc2F)c1`, the “plasma protein binding (% bound)” value in [9] is recorded as 99.8%; in data set [10], 98.9%.
